Data on eleven compounds can be found in patent US6022495A, “Photochromic benzopyrano-fused naphthopyrans” (Transitions Optical, Inc., priority 1998, dated 2000).

The nature of series [1]: Visible lambda max of the activated form in polymer test squares (Varian Cary 3 UV-Visible spectrophotometer). Format: physicochemical. The conditions noted are these: activated (colored) form in test square of BPA 2EO DMA / poly(ethylene glycol) 600 dimethacrylate, 1.5×10^-3 molal. On the procedure: (§1) Testing was done with the photochromic compounds prepared in Examples 1-11 in the following manner. A quantity of each photochromic compound calculated to yield a 1.5×10^-3 molal solution was added to a flask containing 50 grams of a monomer blend of 4 parts ethoxylated bisphenol A dimethacrylate (BPA 2EO DMA), 1 part poly(ethylene glycol) 600 dimethacrylate, and 0.033 weight percent 2,2'-azobis(2-methyl propionitrile) (AIBN). Each photochromic compound was dissolved into the monomer blend by stirring and gentle heating. After a clear solution was obtained, it was poured into a flat sheet mold having the interior dimensions of 2.2 mm×6 inches (15.24 cm)×6 inches (15.24 cm). The mold was sealed and placed in a horizontal air flow, programmable oven programmed to increase the temperature from 40° C. to 95° C. over […], hold the temperature at 95° C. for 3 hours, lower it to 60° C. over a 2 hour interval and then hold at 60° C. for 16 hours. After the mold was opened, the polymer sheet was cut using a diamond blade saw into 2 inch (5.1 centimeters) test squares.
The Δ OD/min, which represents the sensitivity of the photochromic compound's response to UV light, was measured over the first five (5) seconds of UV exposure, then expressed on a per minute basis. The saturation optical density (Δ OD@ Saturation) was taken under identical conditions as the Δ OD/min, except UV exposure was continued for 15 minutes. The lambda max (Vis) is the wavelength in nanometers (nm) in the visible spectrum at which the maximum absorption of the activated (colored) form of the photochromic compound in a test square occurs. The lambda max (Vis) wavelength was determined by testing the photochromic test square polymerizates of Part A in a Varian Cary 3 UV-Visible spectrophotometer. The Bleach Rate (T 1/2) is the time interval in seconds for the absorbance of the activated form of the photochromic compound in the test squares to reach one half the highest absorbance at room temperature (72° F., 22.20C.) after removal of the source of activating light.

A short description of series [2]: Photochromic response of polymer test squares on an optical bench. The conditions noted are these: for ΔOD @ Saturation: UV exposure continued for 15 minutes; for ΔOD @ Saturation / Sensitivity ΔOD/min: 72° F. (22.2° C.); for Sensitivity ΔOD/min: first five (5) seconds of UV exposure, expressed per minute; for Bleach Rate T 1/2: time for absorbance of activated form to reach one half the highest absorbance at room temperature (72° F.) after removal of activating light. It counts as physicochemical. On the procedure: as §1
The photochromic test squares prepared in Part A were tested for photochromic response on an optical bench. Prior to testing on the optical bench, the photochromic test squares were exposed to 365 nanometer ultraviolet light for about 15 minutes to activate the photochromic compounds and then placed in a 76° C. oven for about 15 minutes to bleach or inactivate the photochromic compounds. The test squares were then cooled to room temperature, exposed to fluorescent room lighting for at least 2 hours and then kept covered for at least 2 hours prior to testing on an optical bench maintained at 72° F. (22.2° C.). The bench was fitted with a 150 watt Xenon arc lamp, a remote controlled shutter, a copper sulfate bath acting as a heat sink for the arc lamp, a Schott WG-320 nm cut-off filter which removes short wavelength radiation; neutral density filter(s) and a sample holder in which the square to be tested was inserted. The power output of the optical bench, i.e., the dosage of light that the sample lens would be exposed to, was calibrated with a photochromic test square used as a reference standard. […] The UV-A detector was placed into the sample holder and the light output was measured. Adjustments to the power output were made by increasing or decreasing the lamp wattage or by adding or removing neutral density filters in the light path.
A monitoring, collimated beam of light from a tungsten lamp was passed through the square at a small angle (approximately […]) normal to the square. After passing through the square, the light from the tungsten lamp was directed to a detector through Spectral Energy Corp. GM-200 monochromator set at the previously determined visible lambda max of the photochromic compound being measured. The output signals from the detector were processed by a radiometer.
Change in optical density (ΔOD) was determined by inserting a test square in the bleached state into the sample holder, adjusting the transmittance scale to 100%, opening the shutter from the Xenon lamp to provide ultraviolet radiation to change the test square from the bleached state to an activated (i.e., darkened) state, measuring the transmittance in the activated state, and calculating the change in optical density according to the formula: ΔOD=log(100/% Ta), where % Ta is the percent transmittance in the activated state and the logarithm is to the base 10.
The Δ OD/min, which represents the sensitivity of the photochromic compound's response to UV light, was measured over the first five (5) seconds of UV exposure, then expressed on a per minute basis. The saturation optical density (Δ OD@ Saturation) was taken under identical conditions as the Δ OD/min, except UV exposure was continued for 15 minutes. […]

As for `COc1ccc(C2(c3ccc(OC)cc3)C=Cc3c(c4c5ccccc5c(=O)oc4c4ccccc34)O2)cc1` [Compound 1A, 2,2-bis(4-methoxyphenyl)-10-oxo-2,10-dihydro[2]benzopyrano[4',3':3,4]naphtho(2,1-b)pyran], the “lambda max (Vis)” value in series [1] stood at 493 nanometers. Further, in series [2], the “ΔOD @ Saturation” value was determined as 0.14, the “Sensitivity ΔOD/min” value is on record as 0.29 ΔOD/min and the “Bleach Rate T 1/2” value was determined as 18 s.

On to `COc1ccc(C2(c3ccc(OC)cc3)C=Cc3c(c4ccccc4c4c3oc(=O)c3ccccc34)O2)cc1` [Compound 1B, 6,6-bis(4-methoxyphenyl)-10-oxo-6,10-dihydro[2]benzopyrano[3',4':3,4]naphtho(1,2-b)pyran], for which the “lambda max (Vis)” value in series [1] turned out to be 537 nanometers. Also, in series [2], the “ΔOD @ Saturation” value turned out to be 0.07, the “Sensitivity ΔOD/min” value was 0.19 ΔOD/min and the “Bleach Rate T 1/2” value is 24 s.

For `COc1ccc(C2(c3ccc(OC)cc3)C=Cc3c4c(c5ccccc5c3O2)-c2ccccc2CO4)cc1` [Compound 2, 6,6-bis(4-methoxyphenyl)-6,10-dihydro[2]benzopyrano[3'4':3,4]naphtho(1,2-b)pyran], the “lambda max (Vis)” value in series [1] (listed as 2A) turned out to be 546 nanometers. For the same compound, the “lambda max (Vis)” value in series [1] (listed as 2B) amounted to 432 nanometers. In addition, in series [2] (listed as 2A), the “ΔOD @ Saturation” value was found to be 0.22, the “Sensitivity ΔOD/min” value is 0.10 ΔOD/min and the “Bleach Rate T 1/2” value came to 116 s. In series [2] (listed as 2B), the “ΔOD @ Saturation” value came out at 0.27, the “Sensitivity ΔOD/min” value is listed as 0.12 ΔOD/min and the “Bleach Rate T 1/2” value is 112 s.

With `COc1ccc(C2(c3ccc(N4CCOCC4)cc3)C=Cc3c(c4c5ccccc5c(=O)oc4c4ccccc34)O2)cc1` (stereo not shown) [Compound 3A, 2-(4-methoxyphenyl)-2-(4-morpholinophenyl)-10-oxo-2,10-dihydro[2]benzopyrano[4',3':3,4]naphtho(2,1-b)pyran], the “lambda max (Vis)” value in series [1] was found to be 530 nanometers. Moreover, in series [2], the “ΔOD @ Saturation” value is reported as 0.01, the “Sensitivity ΔOD/min” value is 0.04 ΔOD/min and the “Bleach Rate T 1/2” value was 3 s.

`COc1ccc(C2(c3ccc(N4CCOCC4)cc3)C=Cc3c(c4ccccc4c4c3oc(=O)c3ccccc34)O2)cc1` (stereo not shown) [Compound 3B, 6-(4-methoxyphenyl)-6-(4-morpholinophenyl)-10-oxo-6,10-dihydro[2]benzopyrano[3',4':3,4]naphtho(1,2-b)pyran]: the “lambda max (Vis)” value in series [1] is 598 nanometers. Also, in series [2], the “ΔOD @ Saturation” value was determined as 0.06, the “Sensitivity ΔOD/min” value was 0.13 ΔOD/min and the “Bleach Rate T 1/2” value was 39 s.

Turning to `COc1ccc(C2(c3ccc(N4CCOCC4)cc3)C=Cc3c4c(c5ccccc5c3O2)-c2ccccc2C(C)(C)O4)cc1` (stereo not shown) [Compound 4, 10,10-dimethyl-6-(4-methoxyphenyl)-6-(4-morpholinophenyl)-6,10-dihydro[2]benzopyrano[3',4':3,4]naphtho(1,2-b)pyran], the “lambda max (Vis)” value in series [1] (listed as 4A) is on record as 598 nanometers. Further, in series [1] (listed as 4B), the “lambda max (Vis)” value amounted to 472 nanometers. In series [2] (listed as 4A), the “ΔOD @ Saturation” value was found to be 0.23, the “Sensitivity ΔOD/min” value is reported as 0.18 ΔOD/min and the “Bleach Rate T 1/2” value is 68 s. Also, in series [2] (listed as 4B), the “ΔOD @ Saturation” value amounted to 0.19, the “Sensitivity ΔOD/min” value was 0.12 ΔOD/min and the “Bleach Rate T 1/2” value was 61 s.

In the case of `O=c1oc2c3ccccc3c3c(c2c2ccccc12)OC(c1ccccc1)(c1ccc(N2CCOCC2)cc1)C=C3` (stereo not shown) [Compound 5A, 2-(4-morpholinophenyl)-2-phenyl-10-oxo-2,10-dihydro[2]benzopyrano[4',3':3,4]naphtho(2,1-b)pyran], in series [1], the “lambda max (Vis)” value turned out to be 570 nanometers. Besides, in series [2], the “ΔOD @ Saturation” value came to 0.12, the “Sensitivity ΔOD/min” value is recorded as 0.21 ΔOD/min and the “Bleach Rate T 1/2” value amounted to 37 s.

Turning to `COc1ccc(C2(c3ccc(OC)cc3)C=Cc3c(c4c5cc(OC)c(OC)cc5c(=O)oc4c4ccccc34)O2)cc1` [Compound 6A, 2,2-bis(4-methoxyphenyl)-12,13-dimethoxy-10-oxo-2,10-dihydro[2]benzopyrano[4',3':3,4]naphtho(2,1-b)pyran], the “lambda max (Vis)” value in series [1] turned out to be 477 nanometers. In series [2], the “ΔOD @ Saturation” value was 0.13, the “Sensitivity ΔOD/min” value is given as 0.19 ΔOD/min and the “Bleach Rate T 1/2” value came out at 28 s.

For the compound `COc1ccc(C2(c3ccc(OC)cc3)C=Cc3c(c4ccccc4c4c3oc(=O)c3cc(OC)c(OC)cc34)O2)cc1` [Compound 6B, 6,6-bis(4-methoxyphenyl)-12,13-dimethoxy-10-oxo-6,10-dihydro[2]benzopyrano[3',4':3,4]naphtho(1,2-b)pyran], the “lambda max (Vis)” value in series [1] turned out to be 569 nanometers. Moreover, in series [2], the “ΔOD @ Saturation” value was 0.10, the “Sensitivity ΔOD/min” value is listed as 0.22 ΔOD/min and the “Bleach Rate T 1/2” value was 32 s.

Regarding `COc1ccc(C2(c3ccccc3)C=Cc3c(c4ccccc4c4c3oc(=O)c3cc(OC)c(OC)cc34)O2)cc1` (stereo not shown) [Compound 7A, 6-(4-methoxyphenyl)-6-phenyl-12,13-dimethoxy-10-oxo-6,10-dihydro[2]benzopyrano[3',4':3,4]naphtho(1,2-b)pyran], in series [1], the “lambda max (Vis)” value stood at 569 nanometers. In addition, in series [2], the “ΔOD @ Saturation” value is reported as 0.22, the “Sensitivity ΔOD/min” value is 0.27 ΔOD/min and the “Bleach Rate T 1/2” value amounted to 54 s.

Take `COc1ccc(C2(c3ccccc3)C=Cc3c(c4c5cc(OC)c(OC)cc5c(=O)oc4c4ccccc34)O2)cc1` (stereo not shown) [Compound 7B, 2-(4-methoxphenyl)-2-phenyl-12,13-dimethoxy-10-oxo-2,10-dihydro[2]benzopyrano[4',3':3,4]naphtho(2,1-b)pyran]: in series [1], the “lambda max (Vis)” value worked out at 464 nanometers. Besides, in series [2], the “ΔOD @ Saturation” value came to 0.29, the “Sensitivity ΔOD/min” value is recorded as 0.31 ΔOD/min and the “Bleach Rate T 1/2” value was found to be 47 s.
